pIC50: −log10 of the molar value. Activity calls are given as the source filed them. No cut-off for these calls is given here.
How the values were obtained:
B16-F10 [1] = experiment: Antiproliferative activity against mouse B16-F10 cells assessed as reduction in cell viability measured after 48 hrs by MTT assay; assay type: functional, cell-based; details: B16-F10, 48 h
HepG2 [2] = experiment: Antiproliferative activity against human HepG2 cells assessed as reduction in cell viability measured after 48 hrs by MTT assay; assay type: functional, cell-based; details: HepG2, 48 h
B16-F10 [3] = experiment: Antiproliferative activity against mouse B16-F10 cells assessed as reduction in cell viability incubated for 48 hrs by MTT assay; assay type: functional, cell-based; details: dose 2.5-10 µM
HepG2 [4] = experiment: Antiproliferative activity against human HepG2 cells assessed as reduction in cell viability incubated for 48 hrs by MTT assay; assay type: functional, cell-based; details: dose 2.5-10 µM
HeLa [5] = experiment: Antiproliferative activity against human HeLa cells assessed as reduction in cell viability incubated for 48 hrs by MTT assay; assay type: functional, cell-based; details: dose 2.5-10 µM
MCF7 [6] = experiment: Antiproliferative activity against human MCF7 cells assessed as reduction in cell viability incubated for 48 hrs by MTT assay; assay type: functional, cell-based; details: dose 2.5-10 µM
B16-F10 [7] = experiment: Antiproliferative activity against mouse B16-F10 cells assessed as reduction in cell viability at 0.5 uM by MTT assay; assay type: functional, cell-based; details: time 12-72 hrs, TDE = time-dependent effect
HepG2 [8] = experiment: Antiproliferative activity against human HepG2 cells assessed as reduction in cell viability at 0.5 uM by MTT assay; assay type: functional, cell-based; details: time 12-72 hrs, TDE = time-dependent effect
HeLa [9] = experiment: Antiproliferative activity against human HeLa cells assessed as reduction in cell viability at 0.5 uM by MTT assay; assay type: functional, cell-based; details: time 12-72 hrs, TDE = time-dependent effect
MCF7 [10] = experiment: Antiproliferative activity against human MCF7 cells assessed as reduction in cell viability at 0.5 uM by MTT assay; assay type: functional, cell-based; details: time 12-72 hrs, TDE = time-dependent effect
HepG2 [11] = experiment: Inhibition of colony formation in human HepG2 cells incubated for 24 hrs by crystal violet staining based analysis; assay type: functional, cell-based; details: dose 0.1-1 µM
[12] = Inhibition of pig brain tubulin polymerization by spectrophotometric method; assay type: tissue-based, Sus scrofa
Sus scrofa = organism: Sus scrofa; experiment: Inhibition of pig brain tubulin polymerization measured upto 20 mins by spectrophotometric method; details: dose 3-100 µM, time min <=20
HepG2 [13] = experiment: Antimigratory activity in human HepG2 cells assessed as inhibition of cell migration incubated for 24 hrs by scratch wound healing assay; assay type: functional, cell-based; details: dose 0.1-1 µM
HepG2 [14] = experiment: Cell cycle arrest in human HepG2 cells assessed as accumulation at G1 phase at 0.5 uM measured after 48 hrs by propidium iodide staining based flow cytometry analysis (reference value: 56.11%); assay type: functional
HepG2 [15] = experiment: Cell cycle arrest in human HepG2 cells assessed as accumulation at G1 phase at 1 uM measured after 48 hrs by propidium iodide staining based flow cytometry analysis (reference value: 56.11%); assay type: functional
HepG2 [16] = experiment: Cell cycle arrest in human HepG2 cells assessed as accumulation at G1 phase at 5 uM measured after 48 hrs by propidium iodide staining based flow cytometry analysis (reference value: 56.11%); assay type: functional
HepG2 [17] = experiment: Cell cycle arrest in human HepG2 cells assessed as accumulation at S phase at 0.5 uM measured after 48 hrs by propidium iodide staining based flow cytometry analysis (reference value: 34.13%); assay type: functional
HepG2 [18] = experiment: Cell cycle arrest in human HepG2 cells assessed as accumulation at S phase at 1 uM measured after 48 hrs by propidium iodide staining based flow cytometry analysis (reference value: 34.13%); assay type: functional
HepG2 [19] = experiment: Cell cycle arrest in human HepG2 cells assessed as accumulation at S phase at 5 uM measured after 48 hrs by propidium iodide staining based flow cytometry analysis (reference value: 34.13%); assay type: functional
HepG2 [20] = experiment: Cell cycle arrest in human HepG2 cells assessed as accumulation at G2/M phase at 0.5 uM measured after 48 hrs by propidium iodide staining based flow cytometry analysis (reference value: 9.27%); assay type: functional
HepG2 [21] = experiment: Cell cycle arrest in human HepG2 cells assessed as accumulation at G2/M phase at 1 uM measured after 48 hrs by propidium iodide staining based flow cytometry analysis (reference value: 9.27%); assay type: functional
HepG2 [22] = experiment: Cell cycle arrest in human HepG2 cells assessed as accumulation at G2/M phase at 5 uM measured after 48 hrs by propidium iodide staining based flow cytometry analysis (reference value: 9.27%); assay type: functional
HepG2 [23] = experiment: Induction of apoptosis in human HepG2 cells assessed as necrotic cells at 0.5 uM measured after 48 hrs by AnnexinV-FITC/propidium iodide staining based flow cytometry (reference value: 1.05%); assay type: functional
HepG2 [24] = experiment: Induction of apoptosis in human HepG2 cells assessed as necrotic cells at 1 uM measured after 48 hrs by AnnexinV-FITC/propidium iodide staining based flow cytometry (reference value: 1.05%); assay type: functional
HepG2 [25] = experiment: Induction of apoptosis in human HepG2 cells assessed as necrotic cells at 5 uM measured after 48 hrs by AnnexinV-FITC/propidium iodide staining based flow cytometry (reference value: 1.05%); assay type: functional
HepG2 [26] = experiment: Induction of apoptosis in human HepG2 cells assessed as late apoptotic cells at 0.5 uM measured after 48 hrs by AnnexinV-FITC/propidium iodide staining based flow cytometry (reference value: 5.93%); assay type: functional
HepG2 [27] = experiment: Induction of apoptosis in human HepG2 cells assessed as late apoptotic cells at 1 uM measured after 48 hrs by AnnexinV-FITC/propidium iodide staining based flow cytometry (reference value: 5.93%); assay type: functional
HepG2 [28] = experiment: Induction of apoptosis in human HepG2 cells assessed as late apoptotic cells at 5 uM measured after 48 hrs by AnnexinV-FITC/propidium iodide staining based flow cytometry (reference value: 5.93%); assay type: functional
HepG2 [29] = experiment: Induction of apoptosis in human HepG2 cells assessed as viable cells at 0.5 uM measured after 48 hrs by AnnexinV-FITC/propidium iodide staining based flow cytometry (reference value: 82.2%); assay type: functional; details: read-out: Activity
HepG2 [30] = experiment: Induction of apoptosis in human HepG2 cells assessed as viable cells at 1 uM measured after 48 hrs by AnnexinV-FITC/propidium iodide staining based flow cytometry (reference value: 82.2%); assay type: functional; details: read-out: Activity
HepG2 [31] = experiment: Induction of apoptosis in human HepG2 cells assessed as viable cells at 5 uM measured after 48 hrs by AnnexinV-FITC/propidium iodide staining based flow cytometry (reference value: 82.2%); assay type: functional; details: read-out: Activity
HepG2 [32] = experiment: Induction of apoptosis in human HepG2 cells assessed as early apoptotic cells at 0.5 uM measured after 48 hrs by AnnexinV-FITC/propidium iodide staining based flow cytometry (reference value: 10.8%); assay type: functional
HepG2 [33] = experiment: Induction of apoptosis in human HepG2 cells assessed as early apoptotic cells at 1 uM measured after 48 hrs by AnnexinV-FITC/propidium iodide staining based flow cytometry (reference value: 10.8%); assay type: functional
HepG2 [34] = experiment: Induction of apoptosis in human HepG2 cells assessed as early apoptotic cells at 5 uM measured after 48 hrs by AnnexinV-FITC/propidium iodide staining based flow cytometry (reference value: 10.8%); assay type: functional
HepG2 [35] = experiment: Inhibition of colony formation in human HepG2 cells at 1 uM incubated for 24 hrs by crystal violet staining based analysis; assay type: functional, cell-based
HepG2 [36] = experiment: Disruption of microtubule network in human HepG2 cells incubated for 12 hrs by DAPI staining based immunofluorescence analysis; assay type: functional, cell-based; details: dose 0.1-1 µM
HeLa [37] = experiment: cells; details: Homo sapiens, 48 h
Description: Antiproliferative activity against human HeLa cells assessed as reduction in cell viability measured after 48 hrs by MTT assay

MCF7 [38] = experiment: cells; details: Homo sapiens, MCF7, 48 h
Description: Antiproliferative activity against human MCF7 cells assessed as reduction in cell viability measured after 48 hrs by MTT assay

For `COc1ccc(N(C)c2cccc3ncccc23)cc1`, the pIC50 (B16-F10 [1]) was 6.25, the pIC50 (HepG2 [2]) was 6.58 and the Activity (B16-F10 [3]) was “Dose-Dependent Effect”. For the same compound, the Activity (HepG2 [4]) was “Dose-Dependent Effect”, the Activity (HeLa [5]) was “Dose-Dependent Effect” and the Activity (MCF7 [6]) was “Dose-Dependent Effect”. For the same compound, the Activity (B16-F10 [7]) was “Tde”, the Activity (HepG2 [8]) was “Tde” and the Activity (HeLa [9]) was “Tde”. The Activity (MCF7 [10]) was “Tde”, the inhibition (HepG2 [11]) was “Dose-Dependent Effect” and the pIC50 [12] was 4.91. For the same compound, the inhibition (Sus scrofa) was “Dose-Dependent Effect”, the Activity (HepG2 [13]) was “Dose-Dependent Effect” and the Activity (HepG2 [14]) was 42.3%. For the same compound, the Activity (HepG2 [15]) was 32.66%, the Activity (HepG2 [16]) was 38% and the Activity (HepG2 [17]) was 38.55%. It also gave an Activity (HepG2 [18]) of 38.01%, an Activity (HepG2 [19]) of 30.88% and an Activity (HepG2 [20]) of 17.46%. For the same compound, the Activity (HepG2 [21]) was 27.32%, the Activity (HepG2 [22]) was 32.13% and the Activity (HepG2 [23]) was 2.58%. The Activity (HepG2 [24]) was 1.38%, the Activity (HepG2 [25]) was 2.5% and the Activity (HepG2 [26]) was 23.3%. It also gave an Activity (HepG2 [27]) of 28.5%, an Activity (HepG2 [28]) of 39.4% and a viability at 0.5 µM (HepG2 [29]) of 25.2%. For the same compound, the viability at 1 µM (HepG2 [30]) was 10.6%, the viability at 5 µM (HepG2 [31]) was 19.3% and the Activity (HepG2 [32]) was 48.9%. For the same compound, the Activity (HepG2 [33]) was 59.6%, the Activity (HepG2 [34]) was 38.8% and the inhibition (HepG2 [35]) was “Active”. For the same compound, the Activity (HepG2 [36]) was “Active”, the pIC50 (HeLa [37]) was 5.69 and the pIC50 (MCF7 [38]) was 6.22.

From ChEMBL document CHEMBL4823314, “Design, synthesis and biological evaluation of novel acridine and quinoline derivatives as tubulin polymerization inhibitors with anticancer activities” (Bioorg Med Chem, 2021)
